Assay results from article PMC11659602, “Discovering covalent cyclic peptide inhibitors of peptidyl arginine deiminase 4 (PADI4) using mRNA-display with a genetically encoded electrophilic warhead” (Communications Chemistry, 2024).
Values joined by “and” are separate entries in the source; they are usually repeats but may differ in a detail not shown here. Equal entries are not always repeated. Where two headings read alike, the source gives them in different places. *1 amine or outer side, *2 acyl side, *3 side chain or, on linkers, in order; H or OH if unused. Where a SMILES comes first, the peptide text is derived from it. Bridges are numbered along the chain shown (N, C = ends). [ ]: non-standard residue; d: D form. Orn(fluoroacetimidoyl) = N=C(CF)NCCC[C@H](N)C(=O)O; Orn(acetimidoyl) = CC(=N)NCCC[C@H](N)C(=O)O; X1 = N=C(CCl)NCCC[C@H](N[*:1])C(=O)[*:2]; Cit = NC(=O)NCCC[C@H](N)C(=O)O

How the values were obtained:
PADI4 [1] = biological target: T1, PADI4 (Homo sapiens, UniProt Q9UM07); assay: COLDER inhibition assay, BAEE substrate, with or without 1 h preincubation; assay type: biochemical; conditions: for IC50: COLDER; for remaining activity at 0.003 µM: peptide 0.003 µM; for remaining activity at 0.03 µM: peptide 0.03 µM; for remaining activity at 0.1 µM: peptide 0.1 µM; for remaining activity at 0.3 µM: peptide 0.3 µM; for remaining activity at 3 µM: peptide 3 µM; for remaining activity at 10 µM: peptide 10 µM; for remaining activity at 30 µM: peptide 30 µM; for remaining activity at 50 µM: peptide 50 µM; for remaining activity at 0.01 µM: peptide 0.01 µM; for remaining activity at 1 µM: peptide 1 µM
T1 construct: His6; made in house
Description: PADI4 citrullination activity was analysed using the COLDER assay in 96-well plates. Peptide dilutions were prepared from a 500 µM stock, to give a 10 times concentrated dilution series (500 µM, 300 µM, 100 µM, 30 µM, 10 µM, 3 µM, 1 µM, 0.3 µM, 0.1 µM and 0.03 µM) in COLDER buffer (50 mM HEPES, 150 mM NaCl and 2 mM DTT, pH 7.5) containing 1% DMSO. In triplicate, each was diluted 10-fold further when mixed with 50 nM His-PADI4, 0.6 mg/mL BSA and 10 mM CaCl2, in COLDER buffer. With or without one hour of incubation, 10 mM N^α-Benzoyl-L-arginine ethyl ester hydrochloride (BAEE, Merck) was added to initiate the reaction (50 µL final volume). After 30 min at rt, EDTA (50 mM final concentration) was used to quench the reaction and 200 µL of COLDER solution containing 20 mM Diacetyl monoxime/2,3-butanedione monoxime (Merck), 0.5 mM Thiosemicarbazide (Acros Organics), 2.25 M H3PO4, 4.5 M H2SO4 and 1.5 mM NH4Fe(SO4)2.12H2O was added to each well. Samples were incubated for 20 min at 95 °C before measuring absorbance at 540 nm on a CLARIOstar Plus (BMG LABTECH). Data analysis was performed with GraphPad Prism. Data are presented as the average ± standard error of the mean from at least two independent replicates.

PADI4 [2] = biological target: T1, PADI4; assay: Surface plasmon resonance (SPR), single cycle kinetics; assay type: binding; conditions: for Kd: reversible binding, 1:1 binding model; for Ki: k-1/k+1
Description: S8. Surface plasmon resonance (SPR)
Using a Biacore S200 (GE Healthcare), biotinylated His-PADI4 (80 nM) was immobilised on a CAP chip (GE Healthcare) to a response unit of approx. 3000. At 25 °C, single cycle kinetics mode was used with 5 samples of a 3-fold dilution series of peptides PADI4_3_H4(2), cP4_2, […]
mM HEPES, 150 mM NaCl, 10 mM CaCl2, 0.05% Tween-20, 0.1% DMSO (pH 7.5). After each cycle, regeneration of the chip was carried out as per the manufacturer’s protocol. Data were analysed with the Biacore S200 Evaluation Software, each in triplicate. Warhead-containing peptides were analysed using the two-state reaction model, with the rate constant for the reverse second step (k-2) set to zero. The equilibrium constant of the reversible binding step, Ki, was calculated as the ratio of k-1/k+1 and the rate constant of the irreversible chemical step, kinact, as k+2. The Arg4, Cit4 and Me4 peptides were fitted using a 1:1 binding model. […]

[3] = no preincubation of peptide and PADI4, 10 mM CaCl2, read-out: IC50 Values 0 h preincubation
[4] = no preincubation, read-out: PADI4 activity, normalised (Figure 4b dose-response)
[5] = 1 h, T=1 (1 h preincubation), read-out: PADI4 activity, dose-response data of Figure S15 (individual replicates)
[6] = 1 h preincubation of peptide and PADI4, 10 mM CaCl2, read-out: IC50 Values 1 h preincubation
[7] = T=0 (no preincubation), read-out: PADI4 activity, dose-response data of Figure S15 (individual replicates)
[8] = each replicate, read-out: k2 / kinact
[9] = two-state reaction model, k+2, read-out: SPR kinact (converted)
[10] = T=0, values starred, read-out: PADI4 activity normalised to 0.1% DMSO
[11] = T=0, read-out: PADI4 activity normalised to 0.1% DMSO
[12] = T=1, read-out: PADI4 activity normalised to 0.1% DMSO

T1 sequence (Q9UM07 whole entry): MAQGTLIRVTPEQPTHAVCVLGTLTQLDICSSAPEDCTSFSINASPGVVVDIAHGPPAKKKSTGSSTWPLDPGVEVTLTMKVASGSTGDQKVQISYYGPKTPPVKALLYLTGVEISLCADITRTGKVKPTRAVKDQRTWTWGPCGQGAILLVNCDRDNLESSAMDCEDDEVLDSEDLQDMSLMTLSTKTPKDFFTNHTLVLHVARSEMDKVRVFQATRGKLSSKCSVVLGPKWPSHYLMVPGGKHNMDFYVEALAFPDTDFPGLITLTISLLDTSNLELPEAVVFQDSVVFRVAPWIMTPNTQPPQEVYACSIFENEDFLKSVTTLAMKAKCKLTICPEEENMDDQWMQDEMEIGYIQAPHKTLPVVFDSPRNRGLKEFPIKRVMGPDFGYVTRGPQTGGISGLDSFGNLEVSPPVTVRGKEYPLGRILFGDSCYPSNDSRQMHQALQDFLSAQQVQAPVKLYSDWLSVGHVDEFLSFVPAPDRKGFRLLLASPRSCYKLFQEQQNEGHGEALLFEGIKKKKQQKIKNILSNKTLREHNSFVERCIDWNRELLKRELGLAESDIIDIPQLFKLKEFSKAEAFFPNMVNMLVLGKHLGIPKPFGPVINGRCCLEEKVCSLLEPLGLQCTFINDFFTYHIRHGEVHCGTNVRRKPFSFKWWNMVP

Compound: N=C(N)NCCC[C@@H]1NC(=O)[C@H](CCCNC(N)=O)NC(=O)[C@H](CC(=O)O)NC(=O)[C@H](Cc2ccc(O)cc2)NC(=O)[C@H](CCCCN)NC(=O)[C@H](CO)NC(=O)[C@@H](Cc2ccc(O)cc2)NC(=O)CSC[C@@H](C(=O)NCC(N)=O)NC(=O)[C@H](CC(=O)O)NC(=O)[C@H](CCCNC(=N)N)NC(=O)[C@@H]2CCCN2C(=O)[C@H](CO)NC1=O [Cit4] ({CH2CO}-[dY]SKYD[Cit]RSPRDCG-NH2; thioether N-12)
- IC50 (PADI4 [1]; [3]): > 100 µM
- remaining activity at 0.003 µM (PADI4 [1]; [4]): 96.7%
- remaining activity at 0.03 µM (PADI4 [1]; [4]): 95.6%
- remaining activity at 0.1 µM (PADI4 [1]; [4]): 99.7%
- remaining activity at 0.3 µM (PADI4 [1]; [4]): 103%
- remaining activity at 3 µM (PADI4 [1]; [4]): 101%
- remaining activity at 10 µM (PADI4 [1]; [4]): 108%
- remaining activity at 30 µM (PADI4 [1]; [4]): 103%
- remaining activity at 50 µM (PADI4 [1]; [4]): 107%
- Kd (PADI4 [2]): > 10 µM

Compound: CC[C@H](C)[C@@H]1NC(=O)[C@H](CCCNC(=N)N)NC(=O)[C@H](Cc2ccc(O)cc2)NC(=O)[C@H](CCCNC(=N)N)NC(=O)[C@H](CCC(=O)O)NC(=O)[C@H](CCCNC(=N)CF)NC(=O)[C@H](CC(N)=O)NC(=O)[C@H](CC(C)C)NC(=O)[C@@H](Cc2ccc(O)cc2)NC(=O)CSC[C@@H](C(=O)NCC(N)=O)NC(=O)[C@H](CO)NC1=O [cP4_18] ({CH2CO}-[dY]LN[Orn(fluoroacetimidoyl)]ERYRISCG-NH2; thioether N-11)
- remaining activity at 0.003 µM (PADI4 [1]; [5]): 101%
- remaining activity at 0.01 µM (PADI4 [1]; [5]): 99.7%
- remaining activity at 0.03 µM (PADI4 [1]; [5]): 95.4%
- remaining activity at 0.1 µM (PADI4 [1]; [5]): 77.6%
- remaining activity at 0.3 µM (PADI4 [1]; [5]): 35.4%
- remaining activity at 1 µM (PADI4 [1]; [5]): 10%
- IC50 (PADI4 [1]; [6]): 0.18 µM
- remaining activity at 0.003 µM (PADI4 [1]; [7]): 106%
- remaining activity at 0.01 µM (PADI4 [1]; [7]): 108%
- remaining activity at 0.03 µM (PADI4 [1]; [7]): 107%
- remaining activity at 0.1 µM (PADI4 [1]; [7]): 110%
- remaining activity at 0.3 µM (PADI4 [1]; [7]): 107%
- remaining activity at 1 µM (PADI4 [1]; [7]): 102%
- remaining activity at 3 µM (PADI4 [1]; [7]): 94.6%
- remaining activity at 10 µM (PADI4 [1]; [7]): 64.3%
- remaining activity at 30 µM (PADI4 [1]; [7]): 31.1%
- remaining activity at 50 µM (PADI4 [1]; [7]): 21.4%
- k2 / kinact (PADI4 [2]; each replicate): 0.0019 s⁻¹
- kinact (PADI4 [2]; [8]): 0.0027 s⁻¹
- kinact (PADI4 [2]; [9]): 0.00317 s⁻¹
- Ki (PADI4 [2]; two-state reaction model): 0.81 ± 0.08 µM

Compound: CC(=N)NCCC[C@@H]1NC(=O)[C@H](CC(=O)O)NC(=O)[C@H](Cc2ccc(O)cc2)NC(=O)[C@H](CCCCN)NC(=O)[C@H](CO)NC(=O)[C@@H](Cc2ccc(O)cc2)NC(=O)CSC[C@@H](C(=O)NCC(N)=O)NC(=O)[C@H](CC(=O)O)NC(=O)[C@H](CCCNC(=N)N)NC(=O)[C@@H]2CCCN2C(=O)[C@H](CO)NC(=O)[C@H](CCCNC(=N)N)NC1=O [Me4] ({CH2CO}-[dY]SKYD[Orn(acetimidoyl)]RSPRDCG-NH2; thioether N-12)
- IC50 (PADI4 [1]; [3]): > 20 µM
- remaining activity at 0.003 µM (PADI4 [1]; [4]): 91%
- remaining activity at 0.01 µM (PADI4 [1]; [4]): 92.6%
- remaining activity at 0.03 µM (PADI4 [1]; [4]): 96.4%
- remaining activity at 0.1 µM (PADI4 [1]; [4]): 92.1%
- remaining activity at 0.3 µM (PADI4 [1]; [4]): 93.7%
- remaining activity at 1 µM (PADI4 [1]; [4]): 86.6%
- remaining activity at 3 µM (PADI4 [1]; [4]): 84.6%
- remaining activity at 30 µM (PADI4 [1]; [4]): 41.5%
- remaining activity at 50 µM (PADI4 [1]; [4]): 25.9%
- Kd (PADI4 [2]): 1.7 ± 0.4 µM

Compound: CC[C@H](C)[C@@H]1NC(=O)[C@@H](Cc2ccc(O)cc2)NC(=O)CSC[C@@H](C(=O)NCC(N)=O)NC(=O)[C@H](CO)NC(=O)[C@H](CCCNC(=N)CF)NC(=O)[C@H](CC(=O)O)NC(=O)[C@H](CCCNC(=N)CF)NC(=O)[C@H](CC(C)C)NC(=O)CNC(=O)[C@H](Cc2c[nH]c3ccccc23)NC1=O [cP4_2, yIWGL(2)D(2)SCG] ({CH2CO}-[dY]IWGL[Orn(fluoroacetimidoyl)]D[Orn(fluoroacetimidoyl)]SCG-NH2; thioether N-10)
- IC50 (PADI4 [1]; [6]): 0.87 ± 0.06 µM
- IC50 (PADI4 [1]; [3]): > 50 µM
- remaining activity at 0.003 µM (PADI4 [1]; [10]): 107%
- remaining activity at 0.01 µM (PADI4 [1]; [10]): 107%
- remaining activity at 0.03 µM (PADI4 [1]; [11]): 107%
- remaining activity at 0.1 µM (PADI4 [1]; [11]): 108%
- remaining activity at 0.1 µM (PADI4 [1]; [12]): 93.3%
- remaining activity at 0.3 µM (PADI4 [1]; [11]): 106%
- remaining activity at 0.3 µM (PADI4 [1]; [12]): 74.9%
- remaining activity at 1 µM (PADI4 [1]; [11]): 107%
- remaining activity at 1 µM (PADI4 [1]; [12]): 42.9%
- remaining activity at 3 µM (PADI4 [1]; [11]): 105%
- remaining activity at 3 µM (PADI4 [1]; [12]): 7.63%
- remaining activity at 10 µM (PADI4 [1]; [11]): 101%
- remaining activity at 10 µM (PADI4 [1]; [12]): 3.92%
- remaining activity at 30 µM (PADI4 [1]; [11]): 80.9%
- remaining activity at 50 µM (PADI4 [1]; T=0 (no preincubation), read-out: PADI4 activity normalised to 0.1% DMSO): 64.4%
- kinact/KI (PADI4 [2]): 1530 M⁻¹ s⁻¹
- k2 / kinact (PADI4 [2]; each replicate): 0.0026 s⁻¹ and 0.0019 s⁻¹
- kinact (PADI4 [2]; [8]): 0.0014 s⁻¹
- kinact (PADI4 [2]; [9]): 0.002 s⁻¹
- Ki (PADI4 [2]; two-state reaction model): 1.3 ± 0.5 µM

Compound: N=C(N)NCCC[C@@H]1NC(=O)[C@H](CCCNC(=N)CCl)NC(=O)[C@H](CC(=O)O)NC(=O)[C@H](Cc2ccc(O)cc2)NC(=O)[C@H](CCCCN)NC(=O)[C@H](CO)NC(=O)[C@@H](Cc2ccc(O)cc2)NC(=O)CSC[C@@H](C(=O)NCC(N)=O)NC(=O)[C@H](CC(=O)O)NC(=O)[C@H](CCCNC(=N)N)NC(=O)[C@@H]2CCCN2C(=O)[C@H](CO)NC1=O [Cl4] ({CH2CO}-[dY]SKYD[X1]RSPRDCG-NH2; thioether N-12)
- remaining activity at 0.1 µM (PADI4 [1]; 1 h, T = 1 h preincubation, read-out: PADI4 activity, normalised (Figure 4b dose-response)): 27.3%
- IC50 (PADI4 [1]; [6]): 0.066 ± 0.009 µM
- IC50 (PADI4 [1]; [3]): 8.2 ± 0.8 µM
- remaining activity at 0.01 µM (PADI4 [1]; [4]): 85.9%
- remaining activity at 0.03 µM (PADI4 [1]; [4]): 90.5%
- remaining activity at 0.1 µM (PADI4 [1]; [4]): 86.7%
- remaining activity at 0.3 µM (PADI4 [1]; [4]): 86.6%
- remaining activity at 1 µM (PADI4 [1]; [4]): 82.4%
- remaining activity at 10 µM (PADI4 [1]; [4]): 34.1%
- remaining activity at 30 µM (PADI4 [1]; [4]): 12.5%
- remaining activity at 50 µM (PADI4 [1]; [4]): 6.56%
- kinact/KI (PADI4 [2]): 1170 M⁻¹ s⁻¹
- kinact (PADI4 [2]; [9]): 0.00467 s⁻¹
- Ki (PADI4 [2]; two-state reaction model): 4 ± 0.2 µM
